# Results reported in US6825348B2, “Antiviral compounds” (Academia Sinica, priority 2002, dated 2004).
# Read-outs that look alike come from different tables or passages of the source.
# Legend:
# [1] = tested on: moloney murine sarcoma virus (MSV); assay: Inhibition of MSV cytopathogenicity in CEM cells (cell-protection assay); assay type: cell-based; settings: CEM cells, average of duplicates; for IC50: Moloney murine sarcoma virus, CCRF-CEM, read-out: IC50 MSV
# PRPP synthetase = PRPP synthetase (UniProt P0A717); assay: PRPP synthetase reaction, conversion to diphosphates and inhibition of AMP phosphorylation; assay type: biochemical; settings: inhibition of AMP phosphorylation, 37° C., 15 min
# Protocol: Enzymatic Conversion of Acyclic Nucleoside Phosphonates and Nucleotide 5′-Monophosphate Analog to Their Antivirally Active Diphosphates (Triphosphate Equivalents). Substrate affinities of acyclic nucleoside phosphonates 4, 20, 21, and dinucleotide analog 24 for PRPP synthetase as well as their inhibitory effect against the enzyme were evaluated according to the established procedures. See, e.g., Balzarini et al. (1991) J. Biol. Chem. 266: 8686-8689 and references cited therein. The assays were then terminated after 4 h by the addition of MeOH. HPLC on an anion-exchange Partisphere column was used to analyze the formation of […] 21pp, PMEApp, 4pp, 20pp, and 24pp.
# HeLa cells [2] = assay: Toxicity, morphological changes in HeLa cells
# MT4 cells [3] = assay: Toxicity toward MT4 cells
# HSV-1 (KOS) = assay: Anti-HSV-1 activity in vivo, HSV-1-induced mortality in NMRI mice; settings: 6 days; for mean day of animal death / mean day of symptom initiation: terminated day 21; for responders at 100 mg/kg / responders at 150 mg/kg / responders at 250 mg/kg: Human alphaherpesvirus 1, ip, 504 h
# [4] = tested on: human cytomegalovirus (AD-169); assay: Inhibition of HCMV cytopathogenicity in Vero cell culture; assay type: cell-based; settings: Vero cell culture, 50% inhibition of cytopathogenicity, for 1:1 mixtures IC50 refers to known antiviral drugs; for IC50: Human betaherpesvirus 5, AD169, read-out: IC50 HCMV (AD-169)
# [5] = Lipophilicity, 1-octanol/water partition coefficient
# [6] = tested on: herpes simplex type 1 virus (HSV-1) (KOS); assay: Inhibition of HSV-1 cytopathogenicity in Vero cell culture; assay type: cell-based; settings: Vero cell culture, 50% inhibition of virus-induced cytopathogenicity, mean of duplicates, for 1:1 (W/W) mixtures IC50 refers to known antiviral drugs; for IC50: Human alphaherpesvirus 1, read-out: IC50 HSV-1 (KOS)
# CEM cells [7] = assay: Toxicity toward CEM cells
# HIV-1 (IIIB) = assay: microbe, parasite or virus in culture; assay type: cell-based; settings: MT4 cells, average of duplicates; for IC50: Human immunodeficiency virus 1, IIIB, read-out: IC50 HIV-1 (IIIB)
# HIV-2 (LAV-2) = assay: Inhibition of HIV-2 cytopathogenicity in MT4 cells; assay type: cell-based, human immunodeficiency virus; settings: MT4 cells, average of duplicates; for IC50: Human immunodeficiency virus 2, read-out: IC50 HIV-2 (LAV-2)
# [8] = Solubility in water (phosphate buffer, UV absorbance); settings: for solubility at 20 h: pH 6.8, aqueous buffer, thermodynamic from solid
# Vero cells [9] = assay: Toxicity, morphological changes in Vero cells
# [10] = tested on: thymidine kinase-deficient (TK−) varicella-zoster virus (YS/R); assay: microbe, parasite or virus in culture; assay type: cell-based
# [11] = target: T1, calf mucosal adenosine deaminase (ADA, EC 3.5.4.4) (Bos taurus, UniProt P56658); assay: Substrate activity and competitive inhibition of adenosine deaminase; assay type: biochemical; settings: for Ki: inhibition of ADA with ara-A 3 as substrate
# T1 sequence (P56658 1-363): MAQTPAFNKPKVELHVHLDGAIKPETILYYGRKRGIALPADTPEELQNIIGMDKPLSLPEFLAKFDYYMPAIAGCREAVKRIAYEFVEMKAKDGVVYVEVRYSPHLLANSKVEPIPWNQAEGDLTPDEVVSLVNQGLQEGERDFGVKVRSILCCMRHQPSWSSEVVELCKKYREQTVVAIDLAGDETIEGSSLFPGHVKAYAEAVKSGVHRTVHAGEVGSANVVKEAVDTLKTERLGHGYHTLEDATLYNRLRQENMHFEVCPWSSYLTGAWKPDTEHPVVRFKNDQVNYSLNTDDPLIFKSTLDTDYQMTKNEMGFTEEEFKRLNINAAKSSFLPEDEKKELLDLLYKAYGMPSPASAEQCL
# MSV = settings: for mean day of animal death / percentage of MSV-infected mice alive at day 21 postinfection / percentage of MSV-infected mice without tumors at day 21 postinfection: two injections; for mean day of tumor initiation: two injections within two days
# HeLa cells [12] = tested on: HeLa cells
# CEM cells [13] = tested on: CEM cells
# MT4 cells [14] = tested on: MT4 cells
# Vero cells [15] = tested on: Vero cells
# [16] = tested on: herpes simplex type 2 virus (HSV-2) (G); assay: Inhibition of HSV-2 cytopathogenicity in Vero cell culture; assay type: cell-based; settings: 50% inhibition of cytopathogenicity, for 1:1 mixtures IC50 refers to known antiviral drugs
# [17] = tested on: thymidine kinase-positive (TK+) varicella-zoster virus (YS); assay: Inhibition of TK+ VZV cytopathogenicity in Vero cell culture; assay type: cell-based; settings: Vero cell culture; 50% inhibition of cytopathogenicity; for 1:1 mixtures IC50 refers to known antiviral drugs
# [18] = 100 mg/kg/day i.p., read-out: percentage of HSV-1-infected mice alive at day 21 postinfection
# [19] = 100 mg/kg/day i.p., read-out: percentage of HSV-1-infected mice without symptoms at day 21 postinfection
# [20] = 150 mg/kg/day i.p., read-out: percentage of HSV-1-infected mice alive at day 21 postinfection
# [21] = 150 mg/kg/day i.p., read-out: percentage of HSV-1-infected mice without symptoms at day 21 postinfection
# [22] = 250 mg/kg/day i.p., read-out: percentage of HSV-1-infected mice alive at day 21 postinfection
# [23] = 250 mg/kg/day i.p., read-out: percentage of HSV-1-infected mice without symptoms at day 21 postinfection
molecule,measurement,setting,value
"Nc1ncnc2ncn(CCOCP(=O)(O)O)c12 [Compound 20, 7-[2-(Phosphonomethoxy)ethyl]adenine]",IC50,[1],27 µg/mL
same,Ki,PRPP synthetase,16.7 mM
same,"HeLa cell, concentration causing microscopically visible change or disruption in about 50% of the cell sheet",HeLa cells [2],236 µg/mL
same,"MT4 cell, concentration reducing the number of viable uninfected cells by 50%",MT4 cells [3],>300 µg/mL
same,mean day of animal death,HSV-1 (KOS); 100 mg/kg/day i.p.,15.4 ± 1.3 days
same,mean day of symptom initiation,HSV-1 (KOS); 100 mg/kg/day i.p.,12.8 ± 1.1 days
same,mean day of animal death,HSV-1 (KOS); 150 mg/kg/day i.p.,17.8 ± 1.5 days
same,mean day of symptom initiation,HSV-1 (KOS); 150 mg/kg/day i.p.,15.0 ± 0.9 days
same,mean day of animal death,HSV-1 (KOS); 250 mg/kg/day i.p.,20.0 ± 1.7 days
same,mean day of symptom initiation,HSV-1 (KOS); 250 mg/kg/day i.p.,16.8 ± 2.4 days
same,responders at 100 mg/kg,HSV-1 (KOS); [18],70%
same,responders at 100 mg/kg,HSV-1 (KOS); [19],51%
same,responders at 150 mg/kg,HSV-1 (KOS); [20],80%
same,responders at 150 mg/kg,HSV-1 (KOS); [21],62%
same,responders at 250 mg/kg,HSV-1 (KOS); [22],95%
same,responders at 250 mg/kg,HSV-1 (KOS); [23],75%
same,IC50,[4],21 µg/mL
same,logP at […],[5],0.95
same,IC50,[6],20 µg/mL
same,"CEM cell, concentration reducing the number of viable uninfected cells by 50%",CEM cells [7],>300 µg/mL
same,IC50,HIV-1 (IIIB),7.8 µg/mL
same,IC50,HIV-2 (LAV-2),9.1 µg/mL
same,solubility at 20 h,[8],2890 µg/mL
same,"Vero cell, concentration causing microscopically visible change or disruption in about 50% of the cell sheet",Vero cells [9],246 µg/mL
same,IC50,"[10]; Human alphaherpesvirus 3, Vero, read-out: IC50 TK−VZV (YS/R)",8 µg/mL
same,ADA substrate / inhibitor property in words,[11],neither a good substrate nor an inhibitor
same,Ki,[11],> 0.8 mM
"Nc1ncnc2c1ncn2CCOCP(=O)(O)O [PMEA 4, 9-[2-(phosphonomethoxy)ethyl]adenine, reference compound]",IC50,[1],2 µg/mL
same,Ki,PRPP synthetase,3.02 mM
same,"HeLa cell, concentration causing microscopically visible change or disruption in about 50% of the cell sheet",HeLa cells [2],146 µg/mL
same,"MT4 cell, concentration reducing the number of viable uninfected cells by 50%",MT4 cells [3],274 µg/mL
same,mean day of animal death,HSV-1 (KOS); 100 mg/kg/day i.p.,17.0 ± 1.1 days
same,mean day of symptom initiation,HSV-1 (KOS); 100 mg/kg/day i.p.,14.7 ± 1.4 days
same,protection against HSV-induced mortality,HSV-1 (KOS); 150 mg/kg dose level i.p.,full protection
same,mean day of animal death,HSV-1 (KOS); 150 mg/kg/day i.p.,>21 days
same,mean day of symptom initiation,HSV-1 (KOS); 150 mg/kg/day i.p.,18.5 ± 1.9 days
same,mean day of animal death,HSV-1 (KOS); 250 mg/kg/day i.p.,>21 days
same,mean day of symptom initiation,HSV-1 (KOS); 250 mg/kg/day i.p.,>21 days
same,responders at 100 mg/kg,HSV-1 (KOS); [18],77%
same,responders at 100 mg/kg,HSV-1 (KOS); [19],56%
same,responders at 150 mg/kg,HSV-1 (KOS); [20],100%
same,responders at 150 mg/kg,HSV-1 (KOS); [21],80%
same,responders at 250 mg/kg,HSV-1 (KOS); [22],100%
same,responders at 250 mg/kg,HSV-1 (KOS); [23],100%
same,IC50,[4],15 µg/mL
same,logP at […],[5],0.69
same,IC50,[6],11 µg/mL
same,"CEM cell, concentration reducing the number of viable uninfected cells by 50%",CEM cells [7],285 µg/mL
same,mean day of animal death,MSV; 10 mg/kg/day i.p.,13.0 ± 1.1 days
same,percentage of MSV-infected mice alive at day 21 postinfection,MSV; 10 mg/kg/day i.p.,(42%)
same,percentage of MSV-infected mice without tumors at day 21 postinfection,MSV; 10 mg/kg/day i.p.,(19%)
same,mean day of tumor initiation,MSV; 10 mg/kg/day i.p.,9.6 ± 1.5 days
same,percentage of MSV-infected mice without tumors at day 21 postinfection,"MSV; 10 mg/kg/day i.p., listed as 4",19%
same,mean day of animal death,MSV; 20 mg/kg/day i.p.,15.9 ± 1.7 days
same,percentage of MSV-infected mice alive at day 21 postinfection,MSV; 20 mg/kg/day i.p.,(76%)
same,percentage of MSV-infected mice without tumors at day 21 postinfection,MSV; 20 mg/kg/day i.p.,(58%)
same,mean day of tumor initiation,MSV; 20 mg/kg/day i.p.,12.0 ± 1.3 days
same,mean day of animal death,MSV; 50 mg/kg/day i.p.,17.8 ± 2.0 days
same,percentage of MSV-infected mice alive at day 21 postinfection,MSV; 50 mg/kg/day i.p.,(96%)
same,percentage of MSV-infected mice without tumors at day 21 postinfection,MSV; 50 mg/kg/day i.p.,(84%)
same,mean day of tumor initiation,MSV; 50 mg/kg/day i.p.,12.5 ± 1.6 days
same,IC50,HIV-1 (IIIB),4.1 µg/mL
same,IC50,HIV-2 (LAV-2),3.8 µg/mL
same,solubility at 20 h,[8],1970 µg/mL
same,"Vero cell, concentration causing microscopically visible change or disruption in about 50% of the cell sheet",Vero cells [9],175 µg/mL
same,ADA substrate / inhibitor property in words,[11],neither a good substrate nor an inhibitor
same,Ki,[11],> 0.8 mM
"[1-(Guanine-9-yl-ethoxy)methyl]phosphono-6-yl-(Z)-4-(ethylidene)-2,3-dimethoxy-Δ^a,b-butenolide [Compound 29]",IC50 MSV,[1],0.020 µg/mL
same,"HeLa cell, concentration causing microscopically visible change or disruption in about 50% of the cell sheet",HeLa cells [12],8.8 µg/mL
same,IC50 HCMV (AD-169),[4],0.020 µg/mL
same,log P (1-octanol/water),"[5]; P = [substrate]1-octanol/[substrate]H2O, phosphate buffer 0.10 M",0.79
same,IC50 HSV-1 (KOS),[6],0.42 µg/mL
same,"CEM cell, concentration reducing the number of viable uninfected cells by 50%",CEM cells [13],13 µg/mL
same,IC50 HIV-1 (IIIB),HIV-1 (IIIB),6.0 µg/mL
same,IC50 HIV-2 (LAV-2),HIV-2 (LAV-2),7.1 µg/mL
same,"MT4 cell, concentration reducing the number of viable uninfected cells by 50%",MT4 cells [14],14 µg/mL
same,solubility in water,"[8]; phosphate buffer 0.10 M, pH 6.8, agitated 20 h",2050 µg/mL
same,IC50 TK−VZV (YS/R),"[10]; Vero cell culture, 50% inhibition of cytopathogenicity, for 1:1 mixtures IC50 refers to known antiviral drugs",0.0080 µg/mL
same,"Vero cell, concentration causing microscopically visible change or disruption in about 50% of the cell sheet",Vero cells [15],6.6 µg/mL
same,IC50 HSV-2 (G),[16],0.28 µg/mL
same,IC50 TK+VZV (YS),[17],0.0070 µg/mL
